How the values were obtained:
[1] = molecular target: T1, Vascular endothelial growth factor receptor 2 (Homo sapiens, UniProt P35968)
Description: Inhibition of KDR by HTRF assay

Mus musculus [2] = experiment: Inhibition of estradiol-induced uterine edema in BALB/c mouse at 10 mg/kg, po administered 30 mins prior to 17-beta-estradiol challenge after 2 hrs; settings: read-out: INH
[3] = molecular target: T1, Vascular endothelial growth factor receptor 2; experiment: Inhibition of human KDR phosphorylation expressed in mouse NIH3T3 cells by ELISA; assay type: cell-based
Mus musculus [4] = experiment: Half life in CD1 mouse at 3 mg/kg, iv; assay type: ADME, organism-based; set-up: dose 3 mg/kg, route intravenous; settings: in vivo
[5] = AUC in CD1 mouse at 3 mg/kg, iv; assay type: ADME, organism-based; set-up: dose 3 mg/kg, route intravenous; settings: plasma
Mus musculus [6] = experiment: Volume of distribution in CD1 mouse at 3 mg/kg, iv; assay type: ADME, organism-based; set-up: dose 3 mg/kg, route intravenous; settings: in vivo
[7] = Cmax in CD1 mouse at 10 mg/kg, po; assay type: ADME, organism-based; set-up: dose 10 mg/kg, route oral; settings: in vivo
[8] = AUC in CD1 mouse at 10 mg/kg, po; assay type: ADME, organism-based; set-up: dose 10 mg/kg, route oral; settings: plasma
[9] = Oral bioavailability in CD1 mouse at 10 mg/kg; assay type: ADME, organism-based; settings: in vivo

T1 sequence (P35968 whole entry): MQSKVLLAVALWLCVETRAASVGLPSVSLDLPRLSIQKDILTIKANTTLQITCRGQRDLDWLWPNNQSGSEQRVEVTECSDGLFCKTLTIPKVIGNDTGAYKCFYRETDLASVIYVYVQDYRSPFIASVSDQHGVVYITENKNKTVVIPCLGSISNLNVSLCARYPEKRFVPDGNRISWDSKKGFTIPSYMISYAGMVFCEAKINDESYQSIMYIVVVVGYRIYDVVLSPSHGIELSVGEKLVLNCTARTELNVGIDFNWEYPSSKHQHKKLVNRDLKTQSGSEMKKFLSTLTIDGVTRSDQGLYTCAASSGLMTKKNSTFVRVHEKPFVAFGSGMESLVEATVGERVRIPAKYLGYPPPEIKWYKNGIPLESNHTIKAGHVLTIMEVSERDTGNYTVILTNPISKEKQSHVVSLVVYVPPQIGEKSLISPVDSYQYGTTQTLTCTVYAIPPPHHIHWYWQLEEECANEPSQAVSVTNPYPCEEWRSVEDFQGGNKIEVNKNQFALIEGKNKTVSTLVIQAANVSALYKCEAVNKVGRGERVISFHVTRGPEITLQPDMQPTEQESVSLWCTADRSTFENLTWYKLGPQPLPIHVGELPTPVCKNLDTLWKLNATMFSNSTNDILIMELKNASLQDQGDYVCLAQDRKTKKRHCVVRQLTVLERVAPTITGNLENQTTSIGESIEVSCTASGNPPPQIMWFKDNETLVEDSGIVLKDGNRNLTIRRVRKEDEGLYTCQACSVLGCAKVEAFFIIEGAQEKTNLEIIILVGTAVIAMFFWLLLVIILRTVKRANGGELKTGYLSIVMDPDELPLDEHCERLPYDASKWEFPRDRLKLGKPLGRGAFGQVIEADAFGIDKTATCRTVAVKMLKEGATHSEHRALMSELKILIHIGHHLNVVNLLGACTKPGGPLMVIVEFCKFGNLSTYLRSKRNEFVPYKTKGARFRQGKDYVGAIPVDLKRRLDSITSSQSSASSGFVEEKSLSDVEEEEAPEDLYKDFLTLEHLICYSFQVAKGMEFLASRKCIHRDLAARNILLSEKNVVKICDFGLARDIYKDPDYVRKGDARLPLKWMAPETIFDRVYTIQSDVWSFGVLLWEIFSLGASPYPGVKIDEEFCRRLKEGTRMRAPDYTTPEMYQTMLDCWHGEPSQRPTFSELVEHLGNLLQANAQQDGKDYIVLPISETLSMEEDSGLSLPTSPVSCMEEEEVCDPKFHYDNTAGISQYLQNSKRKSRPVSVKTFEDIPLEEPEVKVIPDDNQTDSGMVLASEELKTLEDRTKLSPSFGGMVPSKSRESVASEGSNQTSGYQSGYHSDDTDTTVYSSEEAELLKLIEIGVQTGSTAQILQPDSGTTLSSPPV

Compound | IC50 [1] [nM] | other results
COc1ccc(-c2cnc3c(Br)cnn3c2N)cc1 | > 12500 | –
Nc1c(-c2ccccc2)cnc2c(Br)cnn12 | > 12500 | –
COc1ccc(-c2cnc3c(-c4ccsc4)cnn3c2N)cc1 | 6100 | –
Cn1cc(-c2ccn3c(N)c(-c4ccc(NC(=O)Nc5cccc(Cl)c5)cc4)cnc23)cn1 | – | inhibition in vivo at 10 mg/kg (Mus musculus [2]): 27%
Cn1cc(-c2ccn3c(N)c(-c4ccc(NC(=O)Nc5ccc(F)c(C(F)(F)F)c5)cc4)cnc23)cn1 | – | inhibition in vivo at 10 mg/kg (Mus musculus [2]): < 15%
Cc1cccc(NC(=O)Nc2ccc(-c3cnc4cc(C)nn4c3N)cc2)c1 | 3500 | –
Cc1cccc(NC(=O)Nc2ccc(-c3cnc4cc(-c5ccccc5)nn4c3N)cc2)c1 | > 12500 | –
Cc1ccccc1NC(=O)Nc1ccc(-c2cnc3c(Br)cnn3c2N)cc1 | > 12500 | –
Cc1cccc(NC(=O)Nc2ccc(-c3cnc4c(Br)cnn4c3)cc2)c1 | > 12500 | –
Nc1ccc(-c2cnc3c(Br)cnn3c2N)cc1 | > 12500 | –
Cc1cccc(NC(=O)Nc2cccc(-c3cnc4ccnn4c3N)c2)c1 | 6600 | –
Nc1c(-c2ccc(NC(=O)c3ccccc3)cc2)cnc2c(Br)cnn12 | > 12500 | –
Cn1cc(-c2ccn3c(N)c(-c4ccc(NC(=O)Nc5cc(C(F)(F)F)ccc5F)cc4)cnc23)cn1 | – | inhibition in vivo at 10 mg/kg (Mus musculus [2]): 45%
Cc1cccc(NC(=S)Nc2ccc(-c3cnc4ccnn4c3N)cc2)c1 | 10000 | –

Continued by falling IC50 [1], values first:

IC50 [1] [nM] | Compound | other results
2000 | Cc1cccc(NC(=O)Nc2ccc(-c3cnc4c(C(=O)O)cnn4c3N)cc2)c1 | –
1600 | Nc1c(-c2ccc(NC(=O)Nc3ccccc3)cc2)cnc2c(Br)cnn12 | –
930 | Cc1cccc(NC(=O)Nc2ccc(-c3cnc4c(C#N)cnn4c3N)cc2)c1 | –
810 | Cc1ccc(NC(=O)Nc2ccc(-c3cnc4c(Br)cnn4c3N)cc2)cc1 | –
790 | Cc1cccc(NC(=O)Nc2ccc(-c3cnc4c(C(=O)N5CCN(C)CC5)cnn4c3N)cc2)c1 | –
500 | CCN(CC)CCNC(=O)c1cnn2c(N)c(-c3ccc(NC(=O)Nc4cccc(C)c4)cc3)cnc12 | –
100 | CNC(=O)c1cnn2c(N)c(-c3ccc(NC(=O)Nc4cccc(C)c4)cc3)cnc12 | –
74 | Cc1ccc(F)c(NC(=O)Nc2ccc(-c3cnc4ccnn4c3N)cc2)c1 | –
44 | Nc1c(-c2ccc(NC(=O)Nc3cccc(Cl)c3)cc2)cnc2ccnn12 | –
4 | Cc1cccc(NC(=O)Nc2ccc(-c3cnc4c(-c5cnn(C)c5)cnn4c3N)cc2)c1 | IC50 [3]: 0.7 nM; inhibition in vivo at 10 mg/kg (Mus musculus [2]): 49%; t1/2 (Mus musculus [4]): 15 min; AUC [5]: 1800 ng·h/mL; Vd (Mus musculus [6]): 1.4 L/kg; Cmax [7]: 360 nM; AUC [8]: 810 ng·h/mL; bioavailability [9]: 14%
